For 17 compounds, IC50 results are on record in patent US12202835B2, “Substituted aromatic ring-linked dioxinoquinazolines and dioxinoquinolines as kinase inhibitors” (BEIJING SCITECH-MQ PHARMACEUTICALS LIMITED, priority 2018, dated 2025).

Some results are limits rather than exact numbers.

One test addresses MER kinase (Homo sapiens (Human), UniProt Q12866). Kind of test: Assay of small molecular compounds for inhibiting the activity of MER kinase (LANCE TR-FRET). The test is classed as biochemical. The procedure, abridged:
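LANCE TR-FRET readout of ULight-poly GT phosphorylation by MER kinase; compound final range 0.042-2500 nM, 3-fold steps, 5 min enzyme preincubation. Reaction 60 min at room temperature in the dark with substrate/ATP (4× at 200 nM/20 μM), 1% DMSO, then stopped and developed 60 min; IC50 by curve fit.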
(In general: TR-FRET usually uses a lanthanide donor and a delayed reading to cut background.)

Another test has as its system Ba/F3-AXL cells. The experiment in a line: Assay for inhibiting the proliferation of Ba/F3-AXL cells (CCK-8). As to conditions: 72 hours of incubation, medium with 100 ng/mL hGas6, CCK-8. In kind it is cell-based. As to the method: The values were then imported into Graphpad Prism 5 software for curve fitting, and IC50 was calculated.
For the next test, the system named is MHCC97H cells. The experiment in a line: Assay for inhibiting the proliferation of MHCC97H cells (CCK-8). As to conditions: Homo sapiens. The test is classed as cell-based. Summed up:
(§1)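 Cells seeded in 96-well plates overnight, then exposed 72 h to 9 three-fold dilutions of compound (0.25% DMSO final). Viability by CCK-8 (1-2 h at 37° C., OD 450 nm), survival normalized to untreated and cell-free blanks; IC50 by curve fitting.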

A further test has as its system EBC1 cells. Kind of test: Assay for inhibiting the proliferation of EBC1 cells (CCK-8). The conditions noted are these: Homo sapiens, EBC-1. In kind it is cell-based. The procedure, abridged:
as §1

Chain of MER kinase (Q12866 21-999): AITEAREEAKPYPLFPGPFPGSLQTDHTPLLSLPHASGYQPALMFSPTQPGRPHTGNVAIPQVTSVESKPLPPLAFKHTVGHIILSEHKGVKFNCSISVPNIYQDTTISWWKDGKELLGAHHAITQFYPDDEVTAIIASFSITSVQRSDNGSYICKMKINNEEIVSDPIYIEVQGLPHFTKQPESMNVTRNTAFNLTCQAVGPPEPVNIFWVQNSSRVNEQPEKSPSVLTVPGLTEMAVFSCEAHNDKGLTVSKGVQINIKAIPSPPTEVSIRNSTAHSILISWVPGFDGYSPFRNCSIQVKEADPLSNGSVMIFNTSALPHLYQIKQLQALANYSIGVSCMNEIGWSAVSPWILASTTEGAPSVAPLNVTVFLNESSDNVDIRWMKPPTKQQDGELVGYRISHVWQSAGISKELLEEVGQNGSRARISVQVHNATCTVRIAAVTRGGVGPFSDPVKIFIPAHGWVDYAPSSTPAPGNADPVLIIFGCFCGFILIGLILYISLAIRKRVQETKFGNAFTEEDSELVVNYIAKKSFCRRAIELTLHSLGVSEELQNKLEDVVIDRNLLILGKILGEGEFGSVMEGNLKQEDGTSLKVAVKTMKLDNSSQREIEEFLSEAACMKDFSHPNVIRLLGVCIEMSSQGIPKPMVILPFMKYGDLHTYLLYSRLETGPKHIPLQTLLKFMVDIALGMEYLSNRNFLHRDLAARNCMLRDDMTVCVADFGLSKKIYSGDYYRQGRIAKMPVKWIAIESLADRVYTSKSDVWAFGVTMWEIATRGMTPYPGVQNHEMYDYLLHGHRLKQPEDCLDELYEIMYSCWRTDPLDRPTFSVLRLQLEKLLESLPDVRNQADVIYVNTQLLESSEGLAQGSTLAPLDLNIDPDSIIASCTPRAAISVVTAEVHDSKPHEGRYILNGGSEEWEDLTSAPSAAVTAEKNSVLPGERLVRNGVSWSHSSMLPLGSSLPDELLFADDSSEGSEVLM

Consider `CCOc1ccn(-c2ccc(F)cc2)c(=O)c1C(=O)Nc1ccc(Oc2ccnc3cc(OCCCO)c4c(c23)OCCO4)c(F)c1` [Example 54, N-(4-((5-(3-hydroxypropoxy)-2,3-dihydro-[1,4]dioxino[2,3-f]quinolin-10-yl)oxy)-3-fluorophenyl)-4-ethoxy-1-(4-fluorophenyl)-2-oxo-1,2-dihydropyridine-3-carboxamide], for which the IC50 at MER kinase was ≤ 0.05 µM; with Ba/F3-AXL cells it was < 0.05 µM; in the test on MHCC97H cells, ≤ 0.05 µM; with EBC1 cells, ≤ 0.05 µM.

Take `CCOc1ccn(-c2ccc(F)cc2)c(=O)c1C(=O)Nc1ccc(Oc2ccnc3cc(OCCCOC)c4c(c23)OCCO4)c(F)c1` [Example 55, N-(4-((5-(3-methoxypropoxy)-2,3-dihydro-[1,4]dioxino[2,3-f]quinolin-10-yl)oxy)-3-fluorophenyl)-4-ethoxy-1-(4-fluorophenyl)-2-oxo-1,2-dihydropyridine-3-carboxamide]: the IC50 on MER kinase was ≤ 0.05 µM; in the test on Ba/F3-AXL cells, < 0.05 µM; with MHCC97H cells, ≤ 0.05 µM; in the test with EBC1 cells it was ≤ 0.05 µM.

`CCOc1ccn(-c2ccc(F)cc2)c(=O)c1C(=O)Nc1ccc(Oc2ccnc3cc(OCC#N)c4c(c23)OCCO4)c(F)c1` [Example 56, N-(4-((5-(cyanomethoxy)-2,3-dihydro-[1,4]dioxino[2,3-f]quinolin-10-yl)oxy)-3-fluorophenyl)-4-ethoxy-1-(4-fluorophenyl)-2-oxo-1,2-dihydropyridine-3-carboxamide]: the 50% inhibitory concentration (IC50) at MER kinase is ≤ 0.05 µM; with Ba/F3-AXL cells, < 0.05 µM; in the test with MHCC97H cells it was ≤ 0.05 µM; in the test with EBC1 cells, ≤ 0.05 µM.

Consider `CCOc1ccn(-c2ccc(F)cc2)c(=O)c1C(=O)Nc1ccc(Oc2ccnc3cc(OCCCC#N)c4c(c23)OCCO4)c(F)c1` [Example 57, N-(4-((5-(3-cyanopropoxy)-2,3-dihydro-[1,4]dioxino[2,3-f]quinolin-10-yl)oxy)-3-fluorophenyl)-4-ethoxy-1-(4-fluorophenyl)-2-oxo-1,2-dihydropyridine-3-carboxamide], for which the IC50 at MER kinase was ≤ 0.05 µM; in the test with Ba/F3-AXL cells, < 0.05 µM; in the test with MHCC97H cells it was ≤ 0.05 µM; with EBC1 cells, ≤ 0.05 µM.

In the case of `CCOc1cc2nccc(Oc3ccc(NC(=O)c4c(OCC)ccn(-c5ccc(F)cc5)c4=O)cc3F)c2c2c1OCCO2` [Example 62, N-(4-((5-ethoxy-2,3-dihydro-[1,4]dioxino[2,3-f]quinolin-10-yl)oxy)-3-fluorophenyl)-4-ethoxy-1-(4-fluorophenyl)-2-oxo-1,2-dihydropyridine-3-carboxamide], the IC50 on MER kinase is ≤ 0.05 µM; in the test on Ba/F3-AXL cells, < 0.05 µM; with MHCC97H cells, ≤ 0.05 µM; in the test on EBC1 cells, ≤ 0.05 µM.

With `CCOc1ccn(-c2ccc(F)cc2)c(=O)c1C(=O)Nc1ccc(Oc2ccnc3cc(OC(C)C)c4c(c23)OCCO4)c(F)c1` [Example 63, N-(4-((5-isopropoxy-2,3-dihydro-[1,4]dioxino[2,3-f]quinolin-10-yl)oxy)-3-fluorophenyl)-4-ethoxy-1-(4-fluorophenyl)-2-oxo-1,2-dihydropyridine-3-carboxamide], the IC50 against MER kinase was ≤ 0.05 µM; in the test with Ba/F3-AXL cells it was < 0.05 µM; in the test with MHCC97H cells it was 0.05 to 0.2 µM; with EBC1 cells, ≤ 0.05 µM.

Turning to `CCOc1ccn(-c2ccc(F)cc2)c(=O)c1C(=O)Nc1ccc(Oc2ccnc3cc(OC4COC4)c4c(c23)OCCO4)c(F)c1` [Example 64, N-(4-((5-((oxetan-3-yl)oxy)-2,3-dihydro-[1,4]dioxino[2,3-f]quinolin-10-yl)oxy)-3-fluorophenyl)-4-ethoxy-1-(4-fluorophenyl)-2-oxo-1,2-dihydropyridine-3-carboxamide], the IC50 was ≤ 0.05 µM against MER kinase, < 0.05 µM in the test with Ba/F3-AXL cells, 0.05 to 0.2 µM in the test on MHCC97H cells and 0.05 to 0.2 µM with EBC1 cells.

For the compound `CCOc1ccn(-c2ccc(F)cc2)c(=O)c1C(=O)Nc1ccc(Oc2ccnc3cc(OC4CCOC4)c4c(c23)OCCO4)c(F)c1` (centres unmarked) [Example 65, N-(4-((5-((tetrahydrofuran-3-yl)oxy)-2,3-dihydro-[1,4]dioxino[2,3-f]quinolin-10-yl)oxy)-3-fluorophenyl)-4-ethoxy-1-(4-fluorophenyl)-2-oxo-1,2-dihydropyridine-3-carboxamide], the half-inhibitory concentration (IC50) against MER kinase was ≤ 0.05 µM; in the test with Ba/F3-AXL cells it was < 0.05 µM; in the test on MHCC97H cells it was ≤ 0.05 µM; in the test on EBC1 cells, ≤ 0.05 µM.

Turning to `CCOc1ccn(-c2ccc(F)cc2)c(=O)c1C(=O)Nc1ccc(Oc2ccnc3cc(OC4CCOCC4)c4c(c23)OCCO4)c(F)c1` [Example 66, N-(4-((5-((tetrahydropyran-4-yl)oxy)-2,3-dihydro-[1,4]dioxino[2,3-f]quinolin-10-yl)oxy)-3-fluorophenyl)-4-ethoxy-1-(4-fluorophenyl)-2-oxo-1,2-dihydropyridine-3-carboxamide], the IC50 at MER kinase was ≤ 0.05 µM; with Ba/F3-AXL cells, < 0.05 µM; with MHCC97H cells, ≤ 0.05 µM; with EBC1 cells, ≤ 0.05 µM.

`CCOc1ccn(-c2ccc(F)cc2)c(=O)c1C(=O)Nc1ccc(Oc2ccnc3cc(OCCCN4CCC(C)(C)CC4)c4c(c23)OCCO4)c(F)c1` [Example 67, N-(4-((5-(3-(4,4-dimethylpiperidin-1-yl)propoxy)-2,3-dihydro-[1,4]dioxino[2,3-f]quinolin-10-yl)oxy)-3-fluorophenyl)-4-ethoxy-1-(4-fluorophenyl)-2-oxo-1,2-dihydropyridine-3-carboxamide]: the IC50 at MER kinase is ≤ 0.05 µM; in the test on Ba/F3-AXL cells, < 0.05 µM; in the test on MHCC97H cells it was ≤ 0.05 µM; in the test on EBC1 cells it was ≤ 0.05 µM.

Consider `CCOc1ccn(-c2ccc(F)cc2)c(=O)c1C(=O)Nc1ccc(Oc2ccnc3cc(OCCCN4CCC(C)(N)CC4)c4c(c23)OCCO4)c(F)c1` [Example 68, N-(4-((5-(3-(4-amino-4-methylpiperidin-1-yl)propoxy)-2,3-dihydro-[1,4]dioxino[2,3-f]quinolin-10-yl)oxy)-3-fluorophenyl)-4-ethoxy-1-(4-fluorophenyl)-2-oxo-1,2-dihydropyridine-3-carboxamide], for which the IC50 was ≤ 0.05 µM against MER kinase, < 0.05 µM in the test with Ba/F3-AXL cells, 0.2 to 1 µM in the test with MHCC97H cells and ≤ 0.05 µM in the test with EBC1 cells.

For the compound `CCOc1ccn(-c2ccc(F)cc2)c(=O)c1C(=O)Nc1ccc(Oc2ccnc3cc(OCCCN4CCC(C)(O)CC4)c4c(c23)OCCO4)c(F)c1` [Example 69, N-(4-((5-(3-(4-hydroxy-4-methylpiperidin-1-yl)propoxy)-2,3-dihydro-[1,4]dioxino[2,3-f]quinolin-10-yl)oxy)-3-fluorophenyl)-4-ethoxy-1-(4-fluorophenyl)-2-oxo-1,2-dihydropyridine-3-carboxamide], the IC50 is ≤ 0.05 µM against MER kinase, < 0.05 µM in the test with Ba/F3-AXL cells, 0.05 to 0.2 µM with MHCC97H cells and ≤ 0.05 µM in the test with EBC1 cells.

On to `CCOc1ccn(-c2ccc(F)cc2)c(=O)c1C(=O)Nc1ccc(Oc2ccnc3cc(OCCCN(C)CCOC)c4c(c23)OCCO4)c(F)c1` [Example 70, N-(4-((5-(3-((2-methoxyethyl)(methyl)amino)propoxy)-2,3-dihydro-[1,4]dioxino[2,3-f]quinolin-10-yl)oxy)-3-fluorophenyl)-4-ethoxy-1-(4-fluorophenyl)-2-oxo-1,2-dihydropyridine-3-carboxamide], for which the IC50 is ≤ 0.05 µM against MER kinase, < 0.05 µM with Ba/F3-AXL cells, ≤ 0.05 µM with MHCC97H cells and ≤ 0.05 µM in the test on EBC1 cells.

On to `CCOc1ccn(-c2ccc(F)cc2)c(=O)c1C(=O)Nc1ccc(Oc2ccnc3cc(OCCCN(C)C4CCC4)c4c(c23)OCCO4)c(F)c1` [Example 71, N-(4-((5-(3-(cyclobutyl(methyl)amino)propoxy)-2,3-dihydro-[1,4]dioxino[2,3-f]quinolin-10-yl)oxy)-3-fluorophenyl)-4-ethoxy-1-(4-fluorophenyl)-2-oxo-1,2-dihydropyridine-3-carboxamide], for which the IC50 is ≤ 0.05 µM against MER kinase, < 0.05 µM in the test on Ba/F3-AXL cells, ≤ 0.05 µM with MHCC97H cells and ≤ 0.05 µM with EBC1 cells.

For `CCOc1ccn(-c2ccc(F)cc2)c(=O)c1C(=O)Nc1ccc(Oc2ccnc3cc(OCCCN4CCOCC4)c4c(c23)OCCO4)c(Cl)c1` [Example 72, N-(4-((5-(3-morpholinopropoxy)-2,3-dihydro-[1,4]dioxino[2,3-f]quinolin-10-yl)oxy)-3-chlorophenyl)-4-ethoxy-1-(4-fluorophenyl)-2-oxo-1,2-dihydropyridine-3-carboxamide], the IC50 was ≤ 0.05 µM against MER kinase, < 0.05 µM in the test on Ba/F3-AXL cells, ≤ 0.05 µM in the test on MHCC97H cells and ≤ 0.05 µM in the test on EBC1 cells.

For `CCOc1ccn(-c2ccc(F)cc2)c(=O)c1C(=O)Nc1ccc(Oc2ccnc3cc(OCCCN4CCOCC4)c4c(c23)OCCO4)cc1Cl` [Example 73, N-(2-chloro-4-((5-(3-morpholinopropoxy)-2,3-dihydro-[1,4]dioxino[2,3-f]quinolin-10-yl)oxy)phenyl)-4-ethoxy-1-(4-fluorophenyl)-2-oxo-1,2-dihydropyridine-3-carboxamide], the IC50 against MER kinase is ≤ 0.05 µM; with Ba/F3-AXL cells it was < 0.05 µM; in the test on MHCC97H cells, ≤ 0.05 µM; with EBC1 cells, ≤ 0.05 µM.

`CN1CCN(CCCOc2cc3nccc(Oc4ccc(NC(=O)c5cn(C)c(=O)n(-c6ccc(F)cc6)c5=O)cc4F)c3c3c2OCCO3)CC1` [Example 74, N-(3-fluoro-4-((5-(3-(4-methylpiperazin-1-yl)propoxy)-2,3-dihydro-[1,4]dioxino[2,3-f]quinolin-10-yl)oxy)phenyl)-3-(4-fluorophenyl)-1-methyl-2,4-dioxo-1,2,3,4-tetrahydropyrimidine-5-carboxamide]: the half-maximal inhibitory concentration (IC50) on MER kinase was ≤ 0.05 µM; in the test on Ba/F3-AXL cells, < 0.05 µM; in the test with MHCC97H cells it was 0.05 to 0.2 µM; in the test with EBC1 cells it was ≤ 0.05 µM.

A word on the IC50: it is the concentration at which inhibition is half-maximal. Higher therefore signals a need for much substance.
